# In patent US6437185B1, “Quaternary ammonium compounds and process for preparing and using same” (Finetex, Inc., priority 1999, dated 2002):
# Tests used:
# [1] = tested on: Epiocular samples (Ocular Tissue model); assay: In-vitro Mat Tek ocular irritation protocol (Epiocular, Ocular Tissue model); format: cell-based; conditions: for Ocular Results/Classification: tested at 3.0% active
# Protocol: Both products were tested at 3.0% active for dermal and ocular irritation by in-vitro Mat Tek Protocols (Skin model and Ocular Tissue model).
# Construction of a Dose Response Curve: The extractant solution within each well was pipetted up and down several times to insure that each is well mixed. 200 microliters of each of the mixed extraction solutions was then pipetted into separate wells of a 96 well microtiter plate. A Dynatech MR 4000 Automatic Microplate Reader was used to determine the optical density of each extract at 570 nm. With the absorbance of a negative control defined as 100%, the percent absorbencies of the articles were determined (% viability=100×(OD [article]/OD [negative control]). The calculated percentages directly correlate with the cell metabolism in the Epiocular samples.
# Using a semi-log scale, the percent viability (liner “y” axis) was plotted versus the dosing time (log “x” axis). By interpolation, the time at which the viability has dropped to 50% was determined.
# [2] = tested on: EpiDerm (Skin model); conditions: groupings used to assign irritancy from ET-50; cited from earlier work
# [3] = tested on: Epiocular samples (Ocular Tissue model); conditions: literature grouping, Kay and Calandra 1962; cited from earlier work
Compound,"Mildness in toxicology studies (in words) ([1]; 3.0% active, dermal and ocular irritation, in-vitro Mat Tek Protocols)",Ocular Results/Classification ([1]; first table),Ocular Results/Classification ([1]; second table with the same title),Expected In vivo Irritancy (example substances of the EpiDerm ET-50 groups) [2],Irritancy Classification (example substances of the Draize score / Epiocular ET-50 groups) [3]
"N′,N″,N′″-Triethyl, N′,N′,N′″,N′″-Tetramethyl, N″-[(Trioxypropyl)-ω-hydroxycetyl], dipropylene triammonium triethosulfate [FINQUAT ® CT-P]",milder than FINQUAT® CT,Non-Irritancy (as in Peg 75 Lanolin),Non-Irritancy (as in Peg 75 Lanolin),,
"CCCCCCCCCCCCOS(=O)(=O)[O-].[Na+] [2% Sodium Dodecyl Sulfate, Sodium Dodecyl Sulfate]",,,,Moderate (0.5-4),Mild (<20.5-9.67)
"O=[N+]([O-])O [Conc. Nitric Acid, Nitric Acid]",,,,"Severe, probably corrosive (<0.5)",
